Laboratory results: patent US4145554A, “3-Nitropyrazole derivatives” (Eli Lilly and Company, priority 1977, dated 1979)
Converted amounts (≈) assume the structure as drawn. “And” between values parts separate entries of the source, which are not always exact repeats. Equal entries are not always repeated.

Columns and labels:
Mycoplasma hyosynoviae = test: in vitro tube dilution test (MIC); assay type: cell-based
group E streptococci = test: Lymphadenitis in swine; assay type: in vivo; settings: 200 gm. per ton of feed; 7 weeks; 12 treated swine
Procedure: The same 3-nitropyrazole tested in the example immediately above was also tested to determine its ability to prevent lymphadenitis, or jowl abscess, infections in swine. One group of 12 young swine was treated with the 3-nitropyrazole compound as a feed additive at the rate of 200 gm. per ton of feed, and another group of 12 swine was held as infected controls. Administration of the 3-nitropyrazole began shortly before the administration of the challenge, and continued throughout the 7-week test. All of the swine were challenged with a culture of group E streptococci isolated from jowl abscesses of an infected pig. The challenge organisms were administered as a dispersion in the swine's drinking water. After 7 weeks, all of the swine were slaughtered, and their cervical areas were examined for the presence of the abscesses caused by lymphadenitis infections. […] Abscesses were found in 9 of the 12 infected control animals.

Salmonella pullorum 9-27 = test: in vitro tube dilution test (MIC); assay type: cell-based; settings: Salmonella enterica; Salmonella pullorum 9-27, tube dilution
Mycoplasma hyopneumoniae = test: in vitro tube dilution test (MIC); assay type: cell-based; settings: Mesomycoplasma hyopneumoniae
Alkaligenes fecalis = test: agar dilution technique (MIC); assay type: cell-based
P. multocida [1] = test: Pasteurellosis in turkeys; assay type: in vivo; settings: 100 gm./ton
E. coli = test: Tests in mice, E. coli infection; assay type: in vivo
Procedure: (§1) Groups of laboratory mice were inoculatd with E. coli or with Streptococcus pyogenes. The 3-nitropyrazoles were administered in two different modes to the infected mice. In one group of tests, the compound was administered in two subcutaneous doses of 83 mg./kg. each, given 1 and 5 hours after the mice were inoculated with the organism. The mice were observed, and the results reported below as the number of days the treated mice survived the challenge.
(§2) In the other group of tests, the dose of each compound which allowed 50 percent of the treated mice to survive the challenge was determined. Again, the compound was administered in subcutane divided doses, 1 and 5 hours post-inoculation.

Staphylococcus aureus = test: agar dilution technique (MIC); assay type: cell-based
Citrobacter freundii = test: agar dilution technique (MIC); assay type: cell-based
P. multocida [2] = test: Mice infected with P. multocida, compound injected subcutaneously; assay type: in vivo; settings: 2.5 mg./kg. subcutaneous
Procedure: A second test was conducted in much the same way, except that the 3-nitropyrazole was injected to the treated mice subcutaneously at the same time they were infected with the P. multocida culture.

Escherichia coli = test: agar dilution technique (MIC); assay type: cell-based
secretion in sow's milk = test: secretion in sow's milk; parameters: species or system swine; settings: in vivo
[3] = test system: Enterobacter cloacae and aerogenes; test: agar dilution technique (MIC); assay type: cell-based
Streptococcus sp. = test: in vitro tube dilution test (MIC); assay type: cell-based
Leptospira (5 serotypes) = test: in vitro tube dilution test (MIC); assay type: cell-based
P. multocida [4] = test: Mice infected with P. multocida, compound in drinking water; assay type: in vivo; settings: 7 days
Procedure: Some of the 3-nitropyrazoles were also administered to mice infected with P. multocida. Tests were conducted in which the pyrazoles were administered both by injection and in the drinking water.
The table below reports results of tests in which the compound was administered in the water. Groups of 10 standardized white mice were segregated, and each mouse was infected by injecting a broth culture of P. multocida subcutaneously. The administration of the test compounds was begun at the same time the mice were infected by adding a known amount of the test compound to the drinking water of the mice. One group of infected control mice received no treatment. The mice were observed, and the test was concluded at the end of 7 days. The number of mice in each group which survived the P. multocida infection was recorded.

[5] = Growth promotion in swine; assay type: in vivo; settings: 300 gm./ton; 28 days
Text: The same 3-nitropyrazole tested above was used in a growth promotion test in swine. The pigs weighed 25-30 lbs. when the test began, and were housed and fed according to good commercial practice for 28 days. The pigs in the treated group received feed containing 300 gm. per ton of the 3-nitropyrazole compound.

Streptococcus pyogenes = test: Tests in mice, Streptococcus pyogenes infection; assay type: in vivo; settings: S. pyogenes
Procedure: as §1, §2

Clostridium perfringens = test: microbe, parasite or virus in culture; assay type: cell-based
Treponema hyodysenteriae = test: in vitro tube dilution test (MIC); assay type: cell-based; settings: Brachyspira hyodysenteriae
[6] = test system: Bordetella bronchiseptica; test: in vitro tube dilution test (MIC); assay type: cell-based
[7] = test system: Salmonella typhimurium 1503; test: in vitro tube dilution test (MIC); assay type: cell-based; settings: Salmonella enterica, Salmonella typhimurium 1503 (poult intestine)
Proteus sp. = test: agar dilution technique (MIC); assay type: cell-based
Serratia sp. = test: agar dilution technique (MIC); assay type: cell-based
Vibrio coli = test: in vitro tube dilution test (MIC); assay type: cell-based; settings: Campylobacter coli
Shigella sp. = test: agar dilution technique (MIC); assay type: cell-based
[8] = test system: Streptococcus sp. (group E); test: in vitro tube dilution test (MIC); assay type: cell-based
P. multocida [9] = test: Pasteurellosis in chickens; assay type: in vivo; settings: 100 gm. per ton of feed
[10] = test system: Streptococcus sp. (group D); test: agar dilution technique (MIC); assay type: cell-based
Pasteurella hemolytica = test: in vitro tube dilution test (MIC); assay type: cell-based
[11] = two subcutaneous doses of 83 mg./kg., 1 and 5 hours

## NC(=O)c1cn(CCO)nc1[N+](=O)[O-] [Compound 32, 1-(2-hydroxyethyl)-3-nitro-4-pyrazolecarboxamide]
Mycoplasma hyosynoviae
  MIC: 50 µg/mL (≈ 250 µM)
Group E streptococci
  abscesses in cervical areas: No abscesses were found in any of the treated swine
Salmonella pullorum 9-27
  MIC: < 1.56 µg/mL
Mycoplasma hyopneumoniae
  MIC: 50 µg/mL (≈ 250 µM)
Alkaligenes fecalis
  MIC: 128 µg/mL (≈ 640 µM)
P. multocida [1]
  Mortality Rate: 20%
P. multocida [1]; about 5 mg./kg./day
  Culture Isolation: 1/5
  Mortality Rate: 1/5
E. coli; Escherichia coli, sc, subcutaneous, 1 and 5 hours post-inoculation
  ED50: 19.6 mg/kg
E. coli; [11]
  Days Survived: 7.0 days
Staphylococcus aureus
  MIC: 8 to 16 µg/mL (≈ 40 to 79.9 µM)
Citrobacter freundii
  MIC: 8 µg/mL (≈ 40 µM)
P. multocida [2]
  Survival: 8/10
Escherichia coli
  MIC: 8 µg/mL (≈ 40 µM)
Secretion in sow's milk
  secretion in sow's milk: secreted in sow's milk
[3]
  MIC: 32 µg/mL (≈ 160 µM)
Streptococcus sp.
  MIC: 25 µg/mL (≈ 125 µM)
Leptospira (5 serotypes)
  MIC: > 100 µg/mL
P. multocida [4]; 0.1 gm./gal. in drinking water
  Survival: 8/10
P. multocida [4]; 0.2 gm./gal. in drinking water
  Survival: 10/10
[5]
  Average Daily Feed Consumption: 2.00 lbs.
  Average Daily Gain: 1.01 lbs.
  Feed/Gain: 1.96
Streptococcus pyogenes; [11]
  Days Survived: 5.0 days
Streptococcus pyogenes; Streptococcus pyogenes, sc, subcutaneous, 1 and 5 hours post-inoculation
  ED50: 53.7 mg/kg
Clostridium perfringens
  MIC: 25 to 50 µg/mL (≈ 125 to 250 µM)
Treponema hyodysenteriae
  MIC: 3.12 µg/mL (≈ 15.6 µM)
[6]
  MIC: 25 µg/mL (≈ 125 µM)
[7]
  MIC: < 1.56 µg/mL
Proteus sp.
  MIC: > 128 µg/mL
Serratia sp.
  MIC: 32 µg/mL (≈ 160 µM)
Vibrio coli
  MIC: 6.25 µg/mL (≈ 31.2 µM)
Shigella sp.
  MIC: 16 µg/mL (≈ 79.9 µM)
[8]
  MIC: 1.56 µg/mL (≈ 7.79 µM)
P. multocida [9]
  Mortality: about 12%
  presence of isolable P. multocida in treated birds: about half of the treated birds
P. multocida [9]; individual 8-bird group
  Culture Isolation: 6/8 and 3/8
  Mortality Rate: 2/8 and 0/8
P. multocida [9]; total of two groups
  Culture Isolation, Total: 9/16
  Mortality Rate, Total: 2/16
[10]
  MIC: 32 µg/mL (≈ 160 µM)
Pasteurella hemolytica
  MIC: < 1.56 µg/mL
